{
  "source": "paper PMC10066050",
  "about": "“Antimicrobial peptides CS-piscidin-induced cell death involves activation of RIPK1/PARP, and modification with myristic acid enhances its stability and tumor-targeting capability” (Discover. Oncology, 2023)",
  "key": {"OVCA429 cells": {"system": "OVCA429 cells", "type": "cell-based, human", "settings": "24 h"}, "A2780 cells": {"system": "A2780 cells", "type": "cell-based, human", "settings": "24 h", "method": "(§1) A2780, SKOV3, ID8, IOSE80, and HUVEC cells (2.0 × 10^3 per well) were seeded into 96-well plates in 100 μL culture medium. After 24 h of incubation, the medium was replaced with a medium containing various peptide concentrations. The cell viability after the peptide treatment was tested by CCK8 assay. Briefly, after 24 h treatment, 10 μL CCK8 was added to each well and incubated for 2 h. After incubation, the optical density (OD) at 450 nm was detected using a microplate reader. Cell viability was calculated using the formula: (%) = [D-D0]/[ D¯ -D0] × 100%. D was the OD value of the experimental group, D0 represented the OD value of the blank control group, while [ D¯ was the mean OD value of the control group."}, "SKOV3 cells": {"system": "SKOV3 cells", "type": "cell-based, human", "settings": "24 h", "method": "as §1"}, "ID8-Luc cells": {"system": "ID8-Luc cells", "assay": "Ovarian cancer peritoneal spread mouse model", "type": "in vivo", "settings": "C57BL/6 mice, 5 mpk intraperitoneally every other day, 10 administrations; ascites volume after sacrifice", "method": "To create luciferase heredity stable ID8 cells, the PL-luciferase plasmid (Addgene, 21,471) was packaged by co-transfecting it with DVPR and VSVG packing plasmids using PEI in HEK293T. The virus-containing solution was then collected and cell debris was removed through a 0.45 μm filter. After infection, the cells were selected by treating them with 1 μg/mL puromycin for 3 days to eliminate the uninfected ID8 cells. The expression of luciferase in the cells was then confirmed using the Bio-Lumi™ Firefly Luciferase Reporter Gene Assay Kit (RG042S, Beyotime, China).\nThe animal experiment followed the Declaration of Helsinki guidelines and was approved by the Guangdong Medical University Animal Ethical Committee (GDY2102330). 5-week-old female C57BL/6 mice were obtained from Yancheng biological company and housed in an SPF laboratory at 26 ℃ with free access to water and food. Mice were intraperitoneally injected with 5 × 10^6 ID8-Luc-puro cells resuspended in 200 μL PBS. […] Body weight was measured every 5 days. After treatment, mice were injected with pentobarbitone and D-luciferin, and the luminescence signals were observed within 15 min using the live imaging system (In-vivo Xtreme, Bruker, USA). The fluorescence intensity was normalized and analyzed by Bruker MI SE software."}, "[1]": {"system": "normal ovary epithelial cell IOSE80", "assay": "CCK8 cell viability assay", "type": "cell-based", "settings": "24 h", "method": "as §1"}, "[2]": {"system": "human umbilical vein endothelial cells HUVEC", "assay": "CCK8 cell viability assay", "type": "cell-based", "settings": "24 h", "method": "as §1"}, "ID8 cells": {"system": "ID8 cells", "type": "cell-based, mouse", "settings": "24 h", "method": "as §1"}},
  "note": "Where no end group is shown, it is not given here.",
  "data": [
    {"sequence": "FFKRLRNKFRLMRQAWKDYR [CS-piscidin]", "values": [
      {"measurement": "IC50", "setting": "OVCA429 cells", "result": "27.4 ± 1.16", "unit": "µM"},
      {"measurement": "IC50", "setting": "A2780 cells", "result": "9.44 ± 0.666", "unit": "µM"},
      {"measurement": "IC50", "setting": "SKOV3 cells", "result": "37.4 ± 5.09", "unit": "µM"},
      {"measurement": "ascites / cytotoxicity to normal cells in vivo", "setting": "ID8-Luc cells", "result": "still produced ascites"},
      {"measurement": "IC50", "setting": "[1]", "result": "35.2 ± 3.14", "unit": "µM"},
      {"measurement": "IC50", "setting": "[2]", "result": "14.3 ± 3.03", "unit": "µM"},
      {"measurement": "IC50", "setting": "ID8 cells", "result": "19.8 ± 0.836", "unit": "µM"}
    ]}
  ]
}
